In assay [1] the test system is Alopec. myosur. Description: preemergence application in the open, % damage. It counts as in vivo. How it is done: (§1) The experiments were carried out on small plots. The soil was a sandy loam having a pH of from 5 to 6 and containing from 1 to 1.5% humus. The treatment was preemergence, the active ingredients being applied immediately or at the latest 3 days after sowing. The crop plants were sown in rows. The weed flora was made up of the most widely varying species and was natural; the weed flora depended on the time of the year and in part on the crop (e.g., spring-germinating, summer-germinating). The substances were emulsified or suspended in water as the vehicle, and applied by means of a motor-driven plot spray mounted on a hitch. When no rain fell, the plots were watered to ensure germination and growth of the crop plants and weeds. All the experiments were run for several weeks. Over this period, assessments were made at certain intervals on the 0 to 100 scale.

The subject of a further assay is Anth./Matric. Nature of the assay: preemergence application in the open, % damage. The format is in vivo. The protocol:
as §1

The subject of the next assay is Brassica napus. Nature of the assay: preemergence application in the open, % damage. It counts as in vivo. How it is done: as §1
For a further assay, the system named is Lamium spp. Description: preemergence application in the open, % damage. The format is in vivo. The protocol: as §1
The subject of the next assay is Stellaria media. Description: preemergence application in the open, % damage. The format is in vivo. The protocol: as §1
Assay [2] concerns Alopec. myosur. Description: preemergence treatment in the greenhouse, % damage. It counts as in vivo. Summed up: (§2)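 Ratings, on a 0 to 100 scale, show injury where 100 means no emergence or complete destruction of visible parts. Compounds in water were sprayed either onto freshly sown soil, which was then watered and hooded, or onto plants 3–10 cm tall. Observation lasted 4–6 weeks.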

In a further assay the test system is Bromus spp. Nature of the assay: preemergence treatment in the greenhouse, % damage. It counts as in vivo. Summed up: as §2
For the next assay, the system named is Cyperus ferax. Nature of the assay: preemergence treatment in the greenhouse, % damage. It counts as in vivo. An outline of the steps:
as §2

The next assay concerns Echin. c.g. Description: preemergence treatment in the greenhouse, % damage. It counts as in vivo. An outline of the steps: as §2
Assay [3] has as its system Matric. spp. Description: preemergence treatment in the greenhouse, % damage. It counts as in vivo. Summed up: as §2
Assay [4] concerns Setaria spp. Description: preemergence treatment in the greenhouse, % damage. The format is in vivo. Summed up:
as §2

For another assay, the system named is Glyc. max. Nature of the assay: preemergence treatment in the greenhouse, % damage. It counts as in vivo, Glycine max. Summed up:
as §2

A further assay relates to Beta vulg. Description: preemergence treatment in the greenhouse, % damage. It counts as in vivo, Beta vulgaris. An excerpt:
(§3) The vessels employed were plastic flowerpots having a volume of 300 cm^3; the substrate was a sandy loam containing about 1.5% humus. The seeds of the test plants (see Table 1) were sown shallow, and separated according to species. In the case of Cyperus esculentus, pregerminated tubers were planted. In the preemergence treatment, the active ingredients were then immediately applied to the surface of the soil. They were suspended or emulsified in water as the vehicle, and sprayed through atomizing nozzles. After the agents had been applied, the vessels were lightly sprinkler-irrigated to set germination and growth going, and to activate the chemical agents. The vessels were then covered with transparent plastic hoods until the plants had taken root. This cover ensured uniform germination of the test plants (to the extent that this was not impaired by the chemicals), and prevented readily volatile substances from evaporating.
(§4) For postemergence treatment, the plants were first grown to a height of from 3 to 10 cm, depending on their habit, before treated. Hoods were not placed on the pots. The experiments were set up in the greenhouse, hotter areas (25° to 40° C.) being preferred for heat-loving species, and 15° to 30° C. for plants from moderate climates. The experiments were carried out for from 4 to 6 weeks. During this period the plants were tended and their reaction to the various treatments was assessed. The following tables contain the substances investigated, the application rates in kg/ha of active ingredient, and the test plant species. Assessments were made on a 0 to 100 scale, 0 denoting no damage or normal emergence, and 100 denoting no emergence or complete destruction of at least the visible plant parts.

A further assay has as its system Amar. retro. Description: preemergence treatment in the greenhouse, % damage. It counts as in vivo. Summed up: as §2
A further assay deals with Euph. gen. Nature of the assay: preemergence treatment in the greenhouse, % damage. The format is in vivo. An outline of the steps:
as §2

Another assay has as its system Solanum nigrum. Description: preemergence treatment in the greenhouse, % damage. The format is in vivo. An outline of the steps: as §2
Another assay relates to Gossyp. hirs. Description: preemergence treatment in the greenhouse, % damage. The format is in vivo, Gosspyium hirsutum.
Text: as §3, §4

In assay [5] the test system is Cyper. escul. Nature of the assay: preemergence treatment in the greenhouse, % damage. The format is in vivo, Cyperus esculentus.
Text: as §3, §4

Assay [6] has as its system Alopec. myosur. Nature of the assay: postemergence application in the greenhouse, % damage. The format is in vivo.
Text: as §3, §4

A further assay deals with Avena fat. The description is as above. It counts as in vivo.
Text: as §3, §4

The next assay concerns Chrys. seget. The description is as above. It counts as in vivo.
Text: as §3, §4

For assay [7], the system named is Matric. spp. Described as above. It counts as in vivo.
Text: as §3, §4

Assay [8] deals with Setaria spp. The description is as above. The format is in vivo.
Text: as §3, §4

A further assay deals with Stell. med. The assay is described as above. It counts as in vivo.
Text: as §3, §4

For assay [9], the system named is Cyper. escul. The assay is described as above. It counts as in vivo, Cyperus esculentus.
Text: as §3, §4

Molecules are shown by their SMILES.

As for `CCc1cccc(C)c1N(Cn1cncn1)C(=O)CCl` [Compound 129], the “% damage” value was 35% in the assay with Alopec. myosur. [1] (2.0 kg/ha); 68% in the assay with Alopec. myosur. [1] (4.0 kg/ha); 35% in the assay on Anth./Matric. (one value printed for two rates (2.0 4.0 kg/ha)); 7.5% with Brassica napus (2.0 kg/ha); 22.5% with Brassica napus (4.0 kg/ha); 45% with Lamium spp. (2.0 kg/ha). Also, the “% damage” value in the assay on Lamium spp. (4.0 kg/ha) came out at 90%; in the assay with Stellaria media (2.0 kg/ha), 24%; in the assay with Stellaria media (4.0 kg/ha), 49%.
With `CCc1cccc(C)c1N(Cn1cncn1)C(=O)CCl` [Compound 191], the “% damage” value in the assay on Alopec. myosur. [1] (2.0 kg/ha) is on record as 30%; in the assay with Alopec. myosur. [1] (4.0 kg/ha), 80%; in the assay on Anth./Matric. (2.0 kg/ha), 53%; with Brassica napus (2.0 kg/ha) it was 5%; in the assay with Brassica napus (4.0 kg/ha), 20%; in the assay with Lamium spp. (2.0 kg/ha) it was 40%. The “% damage” value in the assay on Lamium spp. (4.0 kg/ha) stood at 85%; with Stellaria media (2.0 kg/ha) it was 18%; with Stellaria media (4.0 kg/ha), 45%.
Turning to `CCc1cccc(C)c1N(Cn1cc(OC)cn1)C(=O)CCl`, the “% damage” value with Alopec. myosur. [2] (0.5 kg/ha) came out at 100%; with Alopec. myosur. [2] (1.0 kg/ha), 100%; in the assay with Bromus spp. (0.5 kg/ha) it was 90%; in the assay with Bromus spp. (1.0 kg/ha) it was 98%; with Cyperus ferax (0.5 kg/ha) it was 100%; with Cyperus ferax (1.0 kg/ha), 100%. Also, the “% damage” value with Echin. c.g. (0.5 kg/ha) is given as 100%; with Echin. c.g. (1.0 kg/ha), 100%; in the assay with Matric. spp. [3] (0.5 kg/ha), 98%; in the assay with Matric. spp. [3] (1.0 kg/ha) it was 98%; with Setaria spp. [4] (0.5 kg/ha) it was 100%; with Setaria spp. [4] (1.0 kg/ha), 100%. In addition, the “% damage” value is 0% in the assay on Glyc. max (0.5 kg/ha), 0% with Glyc. max (1.0 kg/ha), 5% in the assay with Beta vulg. (0.5 kg/ha) and 15% in the assay on Beta vulg. (1.0 kg/ha).
As to `COc1cnn(CN(C(=O)CCl)c2c(C)cccc2C)c1`, the “% damage” value in the assay on Alopec. myosur. [2] (0.5 kg/ha), with Alopec. myosur. [2] (1.0 kg/ha), in the assay with Bromus spp. (0.5 kg/ha), with Bromus spp. (1.0 kg/ha), in the assay with Cyperus ferax (0.5 kg/ha) and in the assay with Cyperus ferax (1.0 kg/ha) was 100% in each case. Moreover, the “% damage” value in the assay on Echin. c.g. (0.5 kg/ha) is reported as 100%; in the assay with Echin. c.g. (1.0 kg/ha) it was 100%; with Matric. spp. [3] (0.5 kg/ha) it was 95%; with Matric. spp. [3] (1.0 kg/ha), 95%; with Setaria spp. [4] (0.5 kg/ha) it was 100%; in the assay with Setaria spp. [4] (1.0 kg/ha) it was 100%. The “% damage” value in the assay on Glyc. max (0.5 kg/ha) and with Glyc. max (1.0 kg/ha) was 0% throughout.
Take `CCc1cccc(C)c1N(Cn1cncn1)C(=O)CCl` [Compound 189]: the “% damage” value in the assay on Amar. retro. (0.5 kg/ha) is on record as 30%; in the assay on Amar. retro. (1.0 kg/ha), 95%; in the assay with Amar. retro. (2.0 kg/ha) it was 95%; in the assay with Echin. c.g. (0.5 kg/ha), 90%; with Echin. c.g. (1.0 kg/ha), 95%; in the assay on Echin. c.g. (2.0 kg/ha) it was 95%. Moreover, the “% damage” value in the assay on Euph. gen. (0.5 kg/ha) stood at 90%; with Euph. gen. (1.0 kg/ha), 95%; in the assay with Euph. gen. (2.0 kg/ha) it was 95%; with Setaria spp. [4] (0.5 kg/ha) it was 75%; in the assay with Setaria spp. [4] (1.0 kg/ha) it was 95%; in the assay with Setaria spp. [4] (2.0 kg/ha) it was 100%. Also, the “% damage” value in the assay with Solanum nigrum (0.5 kg/ha) is 30%; with Solanum nigrum (1.0 kg/ha), 95%; in the assay with Solanum nigrum (2.0 kg/ha), 95%; in the assay on Glyc. max (0.5 kg/ha), 0%; with Glyc. max (1.0 kg/ha) it was 0%; in the assay with Glyc. max (2.0 kg/ha) it was 0%. Besides, the “% damage” value in the assay with Gossyp. hirs. (0.5 kg/ha) stood at 0%; in the assay on Gossyp. hirs. (1.0 kg/ha) it was 20%; in the assay on Gossyp. hirs. (2.0 kg/ha), 20%; with Cyper. escul. [5] (0.5 kg/ha) it was 50%; in the assay on Cyper. escul. [5] (1.0 kg/ha), 60%; in the assay on Cyper. escul. [5] (2.0 kg/ha) it was 80%. In addition, the “% damage” value in the assay on Alopec. myosur. [6] (1.0 kg/ha) is given as 70%; in the assay on Alopec. myosur. [6] (2.0 kg/ha), 70%; in the assay on Avena fat. (1.0 kg/ha), 60%; in the assay with Avena fat. (2.0 kg/ha) it was 60%; in the assay with Chrys. seget. (1.0 kg/ha) it was 0%; in the assay on Chrys. seget. (2.0 kg/ha), 20%. Moreover, the “% damage” value is recorded as 30% in the assay on Matric. spp. [7] (1.0 kg/ha); 60% in the assay with Matric. spp. [7] (2.0 kg/ha); 80% in the assay with Setaria spp. [8] (1.0 kg/ha); 85% in the assay on Setaria spp. [8] (2.0 kg/ha); 0% in the assay on Stell. med. (1.0 kg/ha); 40% with Stell. med. (2.0 kg/ha). For the same molecule, the “% damage” value in the assay on Cyper. escul. [9] (1.0 kg/ha) and with Cyper. escul. [9] (2.0 kg/ha) was 65% each time.

The values above are taken from patent publication US4593104A, “2-halo-N-(azole-1-yl-methyl)-substituted acetanilides” (BASF Aktiengesellschaft, priority 1976, dated 1986).
